Here are results for 23 compounds from ChEMBL document CHEMBL1138985, “Discovery of potent, selective, and orally bioavailable pyridone-based dipeptidyl peptidase-4 inhibitors” (Bioorg Med Chem Lett, 2006).

One may read the IC50 as the concentration at which inhibition is half-maximal. By half-life is commonly meant the time in which the quantity being followed falls by half. The term bioavailability denotes dose-corrected exposure relative to a reference, in per cent.

Series [1] deals with Dipeptidyl peptidase 8 (Homo sapiens, UniProt Q6V1X1).
Chain of Dipeptidyl peptidase 8 (Q6V1X1 whole entry): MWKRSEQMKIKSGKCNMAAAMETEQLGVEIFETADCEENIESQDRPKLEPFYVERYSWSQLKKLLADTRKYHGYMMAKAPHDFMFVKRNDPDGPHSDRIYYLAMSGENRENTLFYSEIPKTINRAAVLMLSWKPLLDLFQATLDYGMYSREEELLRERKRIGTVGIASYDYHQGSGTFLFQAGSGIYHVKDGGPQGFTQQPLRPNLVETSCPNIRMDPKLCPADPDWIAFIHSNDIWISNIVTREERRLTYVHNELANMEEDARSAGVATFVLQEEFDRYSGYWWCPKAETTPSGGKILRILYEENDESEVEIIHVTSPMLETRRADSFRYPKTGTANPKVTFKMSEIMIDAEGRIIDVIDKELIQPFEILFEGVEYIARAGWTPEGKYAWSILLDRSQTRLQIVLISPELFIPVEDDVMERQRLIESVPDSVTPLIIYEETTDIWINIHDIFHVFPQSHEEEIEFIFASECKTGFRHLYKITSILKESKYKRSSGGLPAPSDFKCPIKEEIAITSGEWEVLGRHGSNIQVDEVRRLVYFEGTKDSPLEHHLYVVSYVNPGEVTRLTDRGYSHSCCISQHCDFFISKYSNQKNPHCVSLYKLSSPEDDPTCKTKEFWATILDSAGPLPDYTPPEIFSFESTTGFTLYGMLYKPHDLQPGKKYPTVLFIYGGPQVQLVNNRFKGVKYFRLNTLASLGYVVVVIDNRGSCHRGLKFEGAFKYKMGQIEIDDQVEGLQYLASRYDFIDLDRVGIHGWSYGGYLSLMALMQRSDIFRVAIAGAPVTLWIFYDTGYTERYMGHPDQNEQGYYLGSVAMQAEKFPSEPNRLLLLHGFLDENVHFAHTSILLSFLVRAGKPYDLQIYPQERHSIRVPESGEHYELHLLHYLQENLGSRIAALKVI
Series [2] deals with Dipeptidyl peptidase 9 (Homo sapiens, UniProt Q86TI2).
Chain of Dipeptidyl peptidase 9 (Q86TI2 whole entry): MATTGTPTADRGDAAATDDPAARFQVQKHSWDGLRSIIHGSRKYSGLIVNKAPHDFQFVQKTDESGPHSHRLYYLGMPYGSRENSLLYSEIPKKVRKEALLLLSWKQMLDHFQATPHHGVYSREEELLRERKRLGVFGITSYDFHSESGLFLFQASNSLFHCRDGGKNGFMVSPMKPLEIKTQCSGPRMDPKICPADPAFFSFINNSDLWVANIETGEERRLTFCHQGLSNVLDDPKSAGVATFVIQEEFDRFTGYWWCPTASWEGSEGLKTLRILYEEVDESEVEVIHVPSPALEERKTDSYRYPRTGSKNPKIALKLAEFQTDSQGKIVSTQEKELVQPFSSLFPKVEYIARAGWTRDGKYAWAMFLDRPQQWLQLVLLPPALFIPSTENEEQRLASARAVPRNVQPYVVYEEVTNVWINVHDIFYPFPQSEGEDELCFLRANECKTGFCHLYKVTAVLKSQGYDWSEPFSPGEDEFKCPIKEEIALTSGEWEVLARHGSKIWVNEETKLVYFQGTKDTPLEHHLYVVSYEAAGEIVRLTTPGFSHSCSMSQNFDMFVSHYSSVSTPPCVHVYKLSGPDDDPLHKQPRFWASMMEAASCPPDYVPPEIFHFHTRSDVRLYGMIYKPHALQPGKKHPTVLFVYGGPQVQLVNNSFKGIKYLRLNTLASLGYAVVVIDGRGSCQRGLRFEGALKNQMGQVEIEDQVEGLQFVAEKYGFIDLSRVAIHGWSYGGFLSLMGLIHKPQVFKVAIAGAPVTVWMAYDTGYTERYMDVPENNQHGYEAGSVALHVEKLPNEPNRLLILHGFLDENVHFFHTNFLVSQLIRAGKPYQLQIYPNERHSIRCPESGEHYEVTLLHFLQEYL
Series [3] in a line: Half life in rat at 1 mg/kg, iv or 2 mg/kg, po. It counts as ADME, organism-based. The settings on record: in vivo.
Series [4] concerns the target Dipeptidyl peptidase 2 (Homo sapiens, UniProt Q9UHL4). Briefly: Inhibition of QPP.
Series [5] is described as follows: Bioavailability in rat at 1 mg/kg, iv or 2 mg/kg, po. It counts as ADME, organism-based. The settings on record: in vivo.
Series [6] can be described thus: Plasma clearance in rat at 1 mg/kg, iv or 2 mg/kg, po. It counts as ADME, organism-based.
A short description of series [7]: Bioavailability in rhesus monkey at 1 mg/kg, iv or 2 mg/kg, po. It counts as ADME, organism-based, Macaca mulatta. The following applies: in vivo.
Series [8] in a line: Plasma clearance in dog at 1 mg/kg, iv or 2 mg/kg, po. Format: ADME, organism-based, Canis lupus familiaris.
The subject of series [9] is Mus musculus. Briefly: Reduction of glucose excursion at 10 mg/kg, po in mouse by Oral Glucose Tolerance Test. It counts as functional. On the set-up: scale not given: the % may be the effect or the level left.
Series [10] can be described thus: Plasma clearance in rhesus monkey at 1 mg/kg, iv or 2 mg/kg, po. It counts as ADME, organism-based, Macaca mulatta.
A short description of series [11]: Half life in dog at 1 mg/kg, iv or 2 mg/kg, po. The settings on record: in vivo. Format: ADME, organism-based, Canis lupus familiaris.
Series [12] concerns Mus musculus. Briefly: Reduction of glucose excursion at 1 mg/kg, po in mouse by Oral Glucose Tolerance Test. It counts as functional. Details: scale not given: the % may be the effect or the level left.
Series [13] can be described thus: Bioavailability in dog at 1 mg/kg, iv or 2 mg/kg, po. Format: ADME, organism-based, Canis lupus familiaris. The settings on record: in vivo.
A short description of series [14]: Half life in rhesus monkey at 1 mg/kg, iv or 2 mg/kg, po. It counts as ADME, organism-based, Macaca mulatta. The following applies: in vivo.
The target of series [15] is Voltage-gated inwardly rectifying potassium channel KCNH2 (Homo sapiens, UniProt Q12809). Briefly: Binding to human ERG potassium channel.
Chain of Voltage-gated inwardly rectifying potassium channel KCNH2 (Q12809 whole entry): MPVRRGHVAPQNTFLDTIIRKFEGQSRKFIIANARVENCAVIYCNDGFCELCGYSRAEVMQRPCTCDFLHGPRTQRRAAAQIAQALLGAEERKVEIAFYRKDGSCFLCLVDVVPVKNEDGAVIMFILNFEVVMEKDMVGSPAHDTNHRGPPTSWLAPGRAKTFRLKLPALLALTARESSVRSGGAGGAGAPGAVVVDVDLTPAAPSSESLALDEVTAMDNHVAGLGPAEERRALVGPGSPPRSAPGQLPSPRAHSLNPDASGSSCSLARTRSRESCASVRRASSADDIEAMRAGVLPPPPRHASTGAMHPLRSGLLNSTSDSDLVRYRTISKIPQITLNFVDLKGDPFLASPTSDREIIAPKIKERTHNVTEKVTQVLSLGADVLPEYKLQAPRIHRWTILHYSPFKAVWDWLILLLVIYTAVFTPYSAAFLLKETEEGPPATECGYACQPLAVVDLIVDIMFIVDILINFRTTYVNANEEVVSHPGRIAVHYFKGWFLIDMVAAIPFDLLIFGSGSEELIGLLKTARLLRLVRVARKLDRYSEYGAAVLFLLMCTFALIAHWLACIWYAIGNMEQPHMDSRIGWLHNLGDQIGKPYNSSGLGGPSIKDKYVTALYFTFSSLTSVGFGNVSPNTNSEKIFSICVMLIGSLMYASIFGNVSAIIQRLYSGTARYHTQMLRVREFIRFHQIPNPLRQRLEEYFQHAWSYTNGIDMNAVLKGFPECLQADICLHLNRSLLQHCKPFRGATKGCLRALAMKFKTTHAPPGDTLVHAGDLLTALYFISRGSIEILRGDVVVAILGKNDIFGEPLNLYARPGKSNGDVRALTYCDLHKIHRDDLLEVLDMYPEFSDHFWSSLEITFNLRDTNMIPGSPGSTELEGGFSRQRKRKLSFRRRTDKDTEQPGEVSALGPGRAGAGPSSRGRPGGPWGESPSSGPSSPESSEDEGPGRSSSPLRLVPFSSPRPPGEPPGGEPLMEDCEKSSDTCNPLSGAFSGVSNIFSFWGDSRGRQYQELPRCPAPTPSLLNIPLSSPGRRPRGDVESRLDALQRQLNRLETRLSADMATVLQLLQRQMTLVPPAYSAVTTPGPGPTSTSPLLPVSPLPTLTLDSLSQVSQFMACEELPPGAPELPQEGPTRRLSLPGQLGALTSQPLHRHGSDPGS

Each structure is given as a SMILES string. Bounds are passed on as bounds.

As for `C[C@@H](c1ccc(-c2ccc(=O)n(C)c2)cc1)[C@H](N)C(=O)N1CCC(F)CC1`, the 50% inhibitory concentration (IC50) in [1] and in [2] was more than 100 µM throughout.
For `C[C@@H](c1ccc(-c2cn(C)c(=O)cc2CO)cc1)[C@H](N)C(=O)N1CC[C@H](F)C1.O=C(O)C(F)(F)F`, the IC50 in series [1], in [2] and in [4] was more than 100 µM each time. For the same compound, the half-life in series [3] is 2.6 h. The compound further showed a bioavailability in series [5] of 3%. In [6], this compound displayed a clearance of 68.1 mL/min/kg.
For `C[C@@H](c1ccc(-c2cn(C)c(=O)c(Cl)c2F)cc1)[C@H](N)C(=O)N1CC[C@H](F)C1`, the 50% inhibitory concentration (IC50) in series [1] and in [2] was more than 100 µM each time.
Regarding `Cc1c(-c2ccc([C@H](C)[C@H](N)C(=O)N3CC[C@H](F)C3)cc2)cc(Br)c(=O)n1C`, the IC50 in [1] and in series [2] was more than 100 µM throughout.
With `C[C@@H](c1ccc(-c2ccc(=O)n(C)c2)cc1)[C@H](N)C(=O)N1CCCC1`, the IC50 in [1] and in series [2] was more than 100 µM in each case.
For the compound `C[C@@H](c1ccc(-c2cc(F)c(=O)n(C)c2)cc1)[C@H](N)C(=O)N1CC[C@H](F)C1`, the half-maximal inhibitory concentration (IC50) in series [2] was more than 100 µM.
As to `C[C@@H](c1ccc(-c2ccc(=O)n(C)c2F)cc1)[C@H](N)C(=O)N1CC[C@H](F)C1.O=C(O)C(F)(F)F`, the half-inhibitory concentration (IC50) in series [1] and in series [2] was more than 100 µM in each case. Besides, the half-life in [3] is 1.1 h. The bioavailability in series [5] was 61%. Also, the clearance in series [6] is 11.2 mL/min/kg.
In the case of `C[C@@H](c1ccc(-c2ccc(=O)n(-c3ccc(F)cc3)c2)cc1)[C@H](N)C(=O)N1CC[C@H](F)C1`, the half-inhibitory concentration (IC50) in series [1] and in series [2] was more than 100 µM throughout.
For the compound `Cc1c(-c2ccc([C@H](C)[C@H](N)C(=O)N3CC[C@H](F)C3)cc2)ccc(=O)n1C`, the 50% inhibitory concentration (IC50) in [1] and in series [2] was more than 100 µM in each case.
On to `C[C@@H](c1ccc(-c2ccc(=O)n(C)c2)cc1)[C@H](N)C(=O)N1CC[C@H](F)C1.O=C(O)C(F)(F)F`, for which the bioavailability in [7] stood at 50%; in [13], 95%; in [5], 34%. Also, the IC50 in series [1] and in series [2] was more than 100 µM each time. Also, the clearance in series [8] was 4.7 mL/min/kg; in series [10] it was 6.7 mL/min/kg; in series [6], 7.7 mL/min/kg. In addition, the values for the Activity in [9] and in series [12] were 56% and 33%, respectively. For the same compound, the half-life is 1.4 h in series [3], 3.8 h in series [11] and 3.9 h in [14].
Take `C[C@@H](c1ccc(-c2ccc(=O)n(C)c2)cc1)[C@H](N)C(=O)N1CCC(F)(F)C1`: the IC50 in [1] and in series [2] was more than 100 µM each time.
In the case of `CCn1cc(-c2ccc([C@H](C)[C@H](N)C(=O)N3CC[C@H](F)C3)cc2)ccc1=O`, the half-maximal inhibitory concentration (IC50) in series [1] and in series [2] was more than 100 µM throughout.
On to `C[C@@H](c1ccc(-c2ccc(=O)n(C)c2)cc1)[C@H](N)C(=O)N1CCSC1`, for which the IC50 in series [1] and in series [2] was more than 100 µM throughout.
For the compound `C[C@@H](c1ccc(-c2ccc(=O)n(C)c2)cc1)[C@H](N)C(=O)N1CC(F)C1`, the 50% inhibitory concentration (IC50) in [1] and in series [2] was more than 100 µM throughout.
Consider `COc1cc(=O)n(C)cc1-c1ccc([C@H](C)[C@H](N)C(=O)N2CC[C@H](F)C2)cc1`, for which the half-maximal inhibitory concentration (IC50) in series [1] and in [2] was more than 100 µM throughout.
Turning to `C[C@@H](c1ccc(-c2ccc(O)nc2)cc1)[C@H](N)C(=O)N1CC[C@H](F)C1.O=C(O)C(F)(F)F`, the 50% inhibitory concentration (IC50) in series [1] is more than 100 µM; in series [15], 8.3 µM; in series [2], more than 100 µM. The half-life in series [3] was 1.9 h. Besides, in series [5], the bioavailability is 10%. In [6], this compound came in with a clearance of 35.8 mL/min/kg.
On to `CCOC(=O)Cn1cc(-c2ccc([C@H](C)[C@H](N)C(=O)N3CC[C@H](F)C3)cc2)ccc1=O`, for which the 50% inhibitory concentration (IC50) in [1] and in series [2] was more than 100 µM throughout.
In the case of `C[C@@H](c1ccc(-c2ccc(=O)n(CC3CC3)c2)cc1)[C@H](N)C(=O)N1CC[C@H](F)C1`, the 50% inhibitory concentration (IC50) in [1] and in series [2] was more than 100 µM each time.
As to `C[C@@H](c1ccc(-c2cc(Br)c(=O)n(C)c2)cc1)[C@H](N)C(=O)N1CC[C@H](F)C1`, the IC50 in series [1] and in [2] was more than 100 µM throughout.
For the compound `C[C@@H](c1ccc(-c2cn(C)c(=O)cc2F)cc1)[C@H](N)C(=O)N1CC[C@H](F)C1`, the IC50 in series [1] and in series [2] was more than 100 µM throughout.
`Cc1cc(=O)n(C)cc1-c1ccc([C@H](C)[C@H](N)C(=O)N2CC[C@H](F)C2)cc1`: the IC50 in series [1] and in series [2] was more than 100 µM each time.
For the compound `CCOC(=O)C(F)(F)n1cc(-c2ccc([C@H](C)[C@H](N)C(=O)N3CC[C@H](F)C3)cc2)ccc1=O`, the IC50 in [1] and in [2] was more than 100 µM throughout.
The compound `CCOC(=O)Nc1c(-c2ccc([C@H](C)[C@H](N)C(=O)N3CC[C@H](F)C3)cc2)cn(C)c(=O)c1F` returned a concentration for half-maximal inhibition (IC50) in [1] of more than 100 µM.
